Test results: publication PMC12155096 (International Journal of Molecular Sciences, 2025)
Where two headings read alike, the source gives them in different places.

What was measured:
[1] = molecular target: Photinus pyralis (firefly) luciferase (Photinus pyralis, UniProt P08659); assay: biochemical; type: biochemical
human CYP1A2 [2] = molecular target: T1, human CYP1A2 (Homo sapiens, UniProt P05177); settings: for CYP1A2 Efficacy (in parenthesis): human
T1 sequence (P05177 1-516): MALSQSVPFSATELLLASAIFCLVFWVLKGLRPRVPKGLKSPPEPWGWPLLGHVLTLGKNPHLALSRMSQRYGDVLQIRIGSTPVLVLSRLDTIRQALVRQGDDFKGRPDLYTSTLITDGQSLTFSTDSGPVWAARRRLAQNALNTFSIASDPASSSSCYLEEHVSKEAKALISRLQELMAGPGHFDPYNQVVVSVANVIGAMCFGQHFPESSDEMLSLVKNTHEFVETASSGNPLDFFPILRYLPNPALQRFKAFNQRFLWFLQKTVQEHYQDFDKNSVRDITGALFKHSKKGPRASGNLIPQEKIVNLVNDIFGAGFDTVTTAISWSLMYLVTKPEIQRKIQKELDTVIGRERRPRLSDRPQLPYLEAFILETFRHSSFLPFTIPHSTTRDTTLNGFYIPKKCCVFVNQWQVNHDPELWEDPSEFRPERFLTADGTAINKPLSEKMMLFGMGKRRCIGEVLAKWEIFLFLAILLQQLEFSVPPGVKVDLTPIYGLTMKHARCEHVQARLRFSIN

human CYP2C9 [3] = molecular target: T2, human CYP2C9 (Homo sapiens, UniProt P11712); settings: human
T2 sequence (P11712 whole entry): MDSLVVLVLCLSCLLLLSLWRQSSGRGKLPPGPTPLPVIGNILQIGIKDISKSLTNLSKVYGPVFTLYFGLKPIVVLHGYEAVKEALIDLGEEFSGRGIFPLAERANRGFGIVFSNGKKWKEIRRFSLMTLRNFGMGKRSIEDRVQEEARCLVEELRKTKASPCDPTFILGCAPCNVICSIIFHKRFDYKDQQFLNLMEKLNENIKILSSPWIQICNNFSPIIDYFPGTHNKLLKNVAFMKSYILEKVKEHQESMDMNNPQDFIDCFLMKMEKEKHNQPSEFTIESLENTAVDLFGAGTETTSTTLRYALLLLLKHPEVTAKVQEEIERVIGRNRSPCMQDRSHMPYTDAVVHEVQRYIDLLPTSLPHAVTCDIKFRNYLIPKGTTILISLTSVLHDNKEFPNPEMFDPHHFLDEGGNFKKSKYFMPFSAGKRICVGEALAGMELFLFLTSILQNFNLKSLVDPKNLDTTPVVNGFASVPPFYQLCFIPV

human CYP2C19 [4] = molecular target: T3, human CYP2C19 (Homo sapiens, UniProt P33261); settings: human
T3 sequence (P33261 whole entry): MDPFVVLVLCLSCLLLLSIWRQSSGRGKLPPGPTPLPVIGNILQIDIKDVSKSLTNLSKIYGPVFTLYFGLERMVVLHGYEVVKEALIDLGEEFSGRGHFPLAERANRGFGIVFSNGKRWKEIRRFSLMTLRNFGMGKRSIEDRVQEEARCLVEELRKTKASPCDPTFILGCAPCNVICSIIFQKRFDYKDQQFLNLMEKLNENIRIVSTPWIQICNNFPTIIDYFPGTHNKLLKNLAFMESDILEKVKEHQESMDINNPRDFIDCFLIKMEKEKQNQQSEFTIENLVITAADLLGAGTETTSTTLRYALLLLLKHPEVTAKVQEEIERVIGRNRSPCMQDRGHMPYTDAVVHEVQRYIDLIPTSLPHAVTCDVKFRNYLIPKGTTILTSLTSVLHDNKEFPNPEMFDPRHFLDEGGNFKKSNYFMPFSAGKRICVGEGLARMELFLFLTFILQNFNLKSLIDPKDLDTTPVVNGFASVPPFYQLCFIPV

human CYP2D6 [5] = molecular target: T4, human CYP2D6 (Homo sapiens, UniProt P10635); settings: for CYP2D6 Efficacy (in parenthesis): human
T4 sequence (P10635 whole entry): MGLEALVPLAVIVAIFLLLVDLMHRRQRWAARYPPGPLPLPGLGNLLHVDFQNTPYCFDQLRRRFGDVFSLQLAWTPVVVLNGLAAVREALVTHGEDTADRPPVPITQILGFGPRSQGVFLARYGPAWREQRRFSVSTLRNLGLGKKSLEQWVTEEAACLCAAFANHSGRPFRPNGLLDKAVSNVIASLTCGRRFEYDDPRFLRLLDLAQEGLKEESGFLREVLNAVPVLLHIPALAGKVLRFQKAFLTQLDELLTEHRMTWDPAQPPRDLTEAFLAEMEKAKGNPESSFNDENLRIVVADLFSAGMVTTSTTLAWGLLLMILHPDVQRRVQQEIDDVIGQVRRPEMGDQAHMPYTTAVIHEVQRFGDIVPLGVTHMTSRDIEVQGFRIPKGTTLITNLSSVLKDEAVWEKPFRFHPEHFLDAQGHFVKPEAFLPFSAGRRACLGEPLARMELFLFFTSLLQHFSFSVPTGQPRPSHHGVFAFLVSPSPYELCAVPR

CYP3A4 [6] = molecular target: T5, CYP3A4 (Homo sapiens, UniProt P08684)
T5 sequence (P08684 whole entry): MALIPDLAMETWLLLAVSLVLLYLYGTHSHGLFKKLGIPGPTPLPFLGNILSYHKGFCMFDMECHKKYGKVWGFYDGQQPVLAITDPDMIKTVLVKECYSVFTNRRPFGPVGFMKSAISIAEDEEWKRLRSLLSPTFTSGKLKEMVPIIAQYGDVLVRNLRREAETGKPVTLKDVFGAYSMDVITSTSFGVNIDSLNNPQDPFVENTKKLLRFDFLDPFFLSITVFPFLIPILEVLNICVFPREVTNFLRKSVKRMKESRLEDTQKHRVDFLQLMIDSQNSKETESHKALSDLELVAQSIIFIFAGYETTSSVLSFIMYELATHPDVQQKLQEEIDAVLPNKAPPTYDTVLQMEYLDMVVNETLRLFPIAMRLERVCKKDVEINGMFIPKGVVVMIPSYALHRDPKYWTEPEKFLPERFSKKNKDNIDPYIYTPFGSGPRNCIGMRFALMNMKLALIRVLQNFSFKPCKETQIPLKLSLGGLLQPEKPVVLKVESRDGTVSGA

human CYP1A2 [7] = molecular target: T1, human CYP1A2; assay: biochemical; settings: CYP1A2 IC50 (half-maximal inhibitory concentration)
human CYP2C9 [8] = molecular target: T2, human CYP2C9; assay: biochemical
human CYP2C19 [9] = molecular target: T3, human CYP2C19; assay: biochemical; settings: CYP2C19 IC50 (half-maximal inhibitory concentration)
human CYP2D6 [10] = molecular target: T4, human CYP2D6; assay: biochemical
CYP3A4 [11] = molecular target: T5, CYP3A4; assay: biochemical; settings: for IC50: CYP3A4 IC50 (half-maximal inhibitory concentration)
human CYP2C19 [12] = molecular target: T3, human CYP2C19; assay: P450-Glo CYP2C19 inhibition qHTS
[13] = CYP2C9 IC50 (half-maximal inhibitory concentration)
[14] = CYP2D6 IC50 (half-maximal inhibitory concentration)

Chain of Photinus pyralis (firefly) luciferase (P08659 whole entry): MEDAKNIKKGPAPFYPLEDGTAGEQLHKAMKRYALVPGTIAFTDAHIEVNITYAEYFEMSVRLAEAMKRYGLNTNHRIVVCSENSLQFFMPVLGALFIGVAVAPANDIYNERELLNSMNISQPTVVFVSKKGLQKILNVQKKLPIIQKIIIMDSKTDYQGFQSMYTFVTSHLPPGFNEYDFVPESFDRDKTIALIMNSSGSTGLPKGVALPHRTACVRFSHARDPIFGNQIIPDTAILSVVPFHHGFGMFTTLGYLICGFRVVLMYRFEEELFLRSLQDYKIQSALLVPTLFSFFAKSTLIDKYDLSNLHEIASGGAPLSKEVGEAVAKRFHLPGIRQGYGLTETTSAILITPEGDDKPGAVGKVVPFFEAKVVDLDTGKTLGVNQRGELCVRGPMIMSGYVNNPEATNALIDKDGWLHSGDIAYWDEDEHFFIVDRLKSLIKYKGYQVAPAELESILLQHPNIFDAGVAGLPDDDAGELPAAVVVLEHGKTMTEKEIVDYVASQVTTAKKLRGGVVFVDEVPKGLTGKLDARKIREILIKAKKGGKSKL

CYP1A2 AC50 (half-maximal activity concentration) (human CYP1A2 [2]) | CYP2D6 AC50 (half-maximal activity concentration) (human CYP2D6 [5]) | AC50 (human CYP2C9 [8]) [µM] | AC50 (CYP3A4 [11]) [µM] | CYP2C19 AC50 (half-maximal activity concentration) (human CYP2C19 [12]) | SMILES | Luciferase IC50 (half-maximal inhibitory concentration) [1] | CYP1A2 Efficacy (in parenthesis) (human CYP1A2 [2]) | CYP2C9 Efficacy (in parenthesis) (human CYP2C9 [3]) | CYP2C19 Efficacy (in parenthesis) (human CYP2C19 [4]) | CYP2D6 Efficacy (in parenthesis) (human CYP2D6 [5]) | CYP3A4 Efficacy (in parenthesis) (CYP3A4 [6]) | IC50 (human CYP1A2 [7]) [µM] | IC50 (human CYP2C9 [8]; [13]) [µM] | IC50 (human CYP2C19 [9]) [µM] | IC50 (human CYP2D6 [10]; [14]) [µM] | IC50 (CYP3A4 [11]) [µM] | IC50 (human CYP2C9 [8]) [µM] | IC50 (human CYP2D6 [10]) [µM]
– | – | – | – | – | CC(C)C1CCC(Cc2ccc(Cl)cc2)C1(O)Cn1cncn1 (centres unmarked) [Ipconazole] | Inactive | 35.41 ± 4.07 (-90 ± 1) % | 0.79 ± 0.09 (-94 ± 4) % | 0.27 ± 0.07 (-168 ± 31) % | 22.34 ± 2.57 (-107 ± 15) % | 0.05 ± 0.01 (-89 ± 5) % | 35.4 | 0.79 | 0.27 | 22.3 | 0.05 | – | –
– | – | – | – | – | COP(=S)(Oc1cc(Cl)c(Br)cc1Cl)c1ccccc1 (centres unmarked) [Leptophos] | Inactive | 21.38 ± 6.3 (-109 ± 13) % | 0.98 ± 0.25 (-107 ± 5) % | 0.27 ± 0.05 (-122 ± 2) % | 89.36 ± 0 (-42 ± 11) % | 7.39 ± 0.5 (-65 ± 15) % | 21.4 | – | 0.27 | – | 7.39 | 0.98 | 89.4
Inactive | Inactive | 13.3 ± 8.76 | 15.8 ± 3.61 | Inconclusive inhibitor | CN(CC1(C)CCCO1)S(=O)(=O)c1ccc(Cl)c(S(N)(=O)=O)c1 (centres unmarked) [Mefruside] | – | – | – | – | – | – | – | – | – | – | – | – | –
– | – | – | – | – | CCCCC(C#N)(Cn1cncn1)c1ccc(Cl)cc1 (centres unmarked) [Myclobutanil] | Inactive | 33.28 ± 11.5 (-34 ± 3) % | 25.18 ± 0 (-109 ± 4) % | 0.66 ± 0.12 (-168 ± 41) % | 49.32 ± 12.32 (-38 ± 7) % | 0.17 ± 0.05 (-75 ± 2) % | 33.3 | 25.2 | 0.66 | 49.3 | 0.17 | – | –
– | – | – | – | – | OC(c1ccc(F)cc1)(c1cncnc1)c1ccccc1Cl (centres unmarked) [Nuarimol] | Inactive | 49.42 ± 19.58 (-46 ± 6) % | 23.57 ± 4.24 (-118 ± 8) % | 2.7 ± 1.21 (-141 ± 5) % | 35.73 ± 4.11 (-53 ± 5) % | 0.31 ± 0.08 (-68 ± 6) % | 49.4 | 23.6 | 2.7 | 35.7 | 0.31 | – | –
– | – | – | – | – | CCOP(=S)(OCC)Oc1ccc([N+](=O)[O-])cc1 [Parathion] | Inactive | 0.99 ± 0.17 (-96 ± 2) % | 1.62 ± 0.19 (-99 ± 2) % | 0.17 ± 0.04 (-144 ± 4) % | 32.26 ± 3.71 (-69 ± 3) % | 3.18 ± 0.89 (-79 ± 1) % | 0.99 | – | 0.17 | – | 3.18 | 1.62 | 32.3
– | – | – | – | – | C=CC(=O)OCC(CO)(COC(=O)C=C)COC(=O)C=C [Pentaerythritol triacrylate] | Inactive | 71.58 ± 8.23 (-54 ± 11) % | 13.25 ± 1.87 (-108 ± 2) % | 22.64 ± 2.6 (-137 ± 14) % | 63.77 ± 20.97 (-79 ± 21) % | 0.93 ± 0.39 (-89 ± 6) % | 71.6 | 13.2 | 22.6 | 63.8 | 0.93 | – | –
